Values quoted from earlier work as cited in patent US5514648A, “Fungicidally active compounds” (priority 1990, dated 1996).

Key:
Bacillus subtilis = settings: against Bacillus subtilis; cited from earlier work
Escedchia coli = settings: against Escedchia coli; cited from earlier work
Staphylococcus aureus = settings: against Staphylococcus aureus; cited from earlier work
Penicillium digitalum = settings: spore germination test with Penicillium digitalum; cited from earlier work

For `CC1CCCCCC(=O)c2c(O)cc(O)cc2CC(=O)O1` (stereo not shown) [curvularin, Curvularin], the anti-bacterial activity (Bacillus subtilis) is listed as “Neither curvularin nor the crude filtrates from Curvularia showed”, the anti-bacterial activity (Escedchia coli) is listed as “Neither curvularin nor the crude filtrates from Curvularia showed” and the anti-bacterial activity (Staphylococcus aureus) is listed as “Neither curvularin nor the crude filtrates from Curvularia showed”. The anti-fungal activity (Penicillium digitalum) was “Neither curvularin nor the crude filtrates from Curvularia showed”.
